Values quoted from earlier work as cited in patent US20140080712A1, “COMPOSITIONS AND METHODS FOR DOUBLE ENCAPSULATION OF A VOLATILE COMPOUND” (AgroFresh Inc., priority 2012, published 2014).

Test system: ethylene
Settings: freshness management

## CC1=CC1 [Sample 1-MCP, 1-methylcyclopropene]
  concentration effective in blocking ethylene: ~100 ppb
